Counter-ions that a name gives are not always drawn.
How the values were obtained:
[1] = biological target: T1, peptide-leukotriene receptor (Cavia porcellus, UniProt Q2NNR5); experiment: Inhibition of the binding of [3H]-LTD4 to guinea-pig lung membranes; conditions: for IC50: 0.3 nM [3H]-LTD4, guinea-pig lung membranes, 30 minutes at 25° C., read-out: IC50, concentration of antagonist displacing 50% of the [3H]-LTD4 ligand from the receptor; for affinity compared with the specific LTD4 agonist: guinea-pig lung membranes, nanomolar level
T1 construct: from tissue; host or cells: guinea-pig lung membranes
T1 sequence (Q2NNR5 1-340): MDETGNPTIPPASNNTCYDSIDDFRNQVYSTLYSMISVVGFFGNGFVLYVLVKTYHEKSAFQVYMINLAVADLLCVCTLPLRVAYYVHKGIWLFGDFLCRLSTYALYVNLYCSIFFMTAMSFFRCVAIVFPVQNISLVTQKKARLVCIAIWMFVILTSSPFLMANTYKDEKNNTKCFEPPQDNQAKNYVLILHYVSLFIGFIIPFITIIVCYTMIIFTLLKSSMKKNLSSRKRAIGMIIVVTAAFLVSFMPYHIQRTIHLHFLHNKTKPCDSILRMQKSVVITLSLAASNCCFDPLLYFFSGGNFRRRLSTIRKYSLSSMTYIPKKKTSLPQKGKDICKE
Description: The method described by Frey et al. [Eur. J. Pharmacol. 244 (1993): 239-250] was followed, with slight modifications.
The separation of the bound from the free was performed by rapid filtration on Whatman GF/B paper filters.

[2] = system: contractions induced by LTD4 on isolated guinea-pig trachea; experiment: Antagonism of contractions induced by LTD4 on isolated guinea-pig trachea in vitro (Schild analysis); conditions: for pA2 calculated according to Schild: LTD4 contraction; for pA2 calculated according to Schild / ED50 of LTD4 (cumulative dose-response curve): isolated guinea-pig trachea
Description: J. Physiol. Pharmacol. 67 (1989): 17-28], with slight modifications. […] The results were expressed as the effect as a percentage of the maximum contraction induced by 300 μM acetylcholine.

[3] = system: sensitized guinea-pigs (ovalbumin challenge); experiment: Bronchoconstriction after aerosolized ovalbumin challenge in sensitized guinea-pigs; format: in vivo; conditions: 0.3 mg/kg orally 30 minutes before aerosolized ovalbumin challenge
[4] = Acute toxicity (LD50) in mice; format: in vivo; conditions: mouse, in vivo
Text: (§1) The compounds according to the invention also have a low toxicity profile.

mice = experiment: Acute toxicity (LD50) in mice; format: in vivo; conditions: oral route; effective dose 0.3 mg/kg
Text: as §1

[5] = Plasma levels in rats (oral bio-availability); format: in vivo; conditions: 20 mg/kg
Description: In addition to the potency shown in vitro in the models given by way of example above, an advantageous and important characteristic of the compounds of the present invention is their optimal oral bio-availability. Thus, for example, Compound 1, administered to rats at a dose of 20 mg/kg, provided a maximum plasma concentration (CMAX) of about 20 mcg/ml 1 hour after administration.

[6] = antagonist concentration 100 nM

| SMILES | IC50 [1] [µM] | melting point | further results |
| --- | --- | --- | --- |
| Cn1cc(C(=O)NC(Cc2ccc(OCc3ccc4ccccc4n3)cc2)C(=O)O)c2ccccc21 (stereo not shown) [Compound 26] | 0.0508 | 180 °C |  |
| O=C(NC(Cc1ccc(OCc2ccc3ccc(F)cc3n2)cc1)C(=O)O)c1ccc2ccccc2n1 (racemic) [Compound 17, O-(7-fluoro-2-quinolinylmethyl)-N-quinaldoyl-D,L-tyrosine] | 0.0079 |  | affinity compared with the specific LTD4 agonist [1]: comparable; pA2 calculated according to Schild [2]: pA2 = 8.53; ED50 of LTD4 (cumulative dose-response curve) ([2]; antagonist concentration 3 nM): 0.00469 µM; ED50 of LTD4 (cumulative dose-response curve) ([2]; antagonist concentration 30 nM): 0.00948 µM; ED50 of LTD4 (cumulative dose-response curve) ([2]; antagonist concentration 300 nM): 0.01978 µM; inhibition of the signs of bronchoconstriction (first appearance of abdominal contractions) [3]: completely inhibited; LD50 ([4]; iv): > 50 mg/kg; LD50 ([4]; po): > 300 mg/kg; acute toxic oral dose in mice relative to the pharmacologically effective dose (mice): more than 1000 times |
| O=C(NC(Cc1ccc(OCc2ccc3ccccc3n2)cc1)C(=O)O)c1nccc2ccccc12 (stereo not shown) [Compound 20] | 0.0641 | 157 °C |  |
| O=C(NC(Cc1ccc(OCc2ccc3ccccc3n2)cc1)C(=O)O)c1ccc(-c2ccccc2)cn1 (stereo not shown) [Compound 30] | 0.0241 | 170 °C |  |
| Cc1ccc2ccc(COc3ccc(CC(NC(=O)c4ccc5ccccc5n4)C(=O)O)cc3)nc2c1 (stereo not shown) [Compound 15] | 0.0113 | 214 °C |  |
| O=C(NC(Cc1ccc(OCc2ccc3ccccc3n2)cc1)C(=O)O)c1ccc2ccccc2n1 (racemic) [Compound 1, O-(2-quinolinylmethyl)-N-quinaldoyl-D,L-tyrosine] | 0.02 |  | pA2 calculated according to Schild [2]: pA2 = 7.88; ED50 of LTD4 (cumulative dose-response curve) ([2]; antagonist concentration 10 nM): 0.00453 µM; ED50 of LTD4 (cumulative dose-response curve) ([2]; antagonist concentration 30 nM): 0.01531 µM; ED50 of LTD4 (cumulative dose-response curve) [2, 6]: 0.03175 µM; time of maximum plasma concentration after administration [5]: 1 h; AUC ([5]; rat, plasma, oral): ~50000 ng·h/mL; concentration at 8 h ([5]; rat, plasma, oral, 8 h, read-out: plasma concentration 8 h after administration): > 2000 ng/mL; Cmax ([5]; rat, plasma, oral, read-out: maximum plasma concentration (CMAX)): ~20000 ng/mL |
| O=C(NC(Cc1ccc(OCc2ccc3ccccc3n2)cc1)C(=O)O)c1ccc2ncccc2c1 (stereo not shown) [Compound 13] | 0.135 | 248 °C |  |
| O=C(NC(Cc1ccc(OCc2ccc3ccc(Cl)cc3n2)cc1)C(=O)O)c1ccc(-c2ccccc2)cc1 (stereo not shown) [Compound 9] | 0.217 | 193 °C |  |
| O=C(NC(Cc1ccc(OCc2ccc3ccccc3n2)cc1)C(=O)O)c1ccccc1 (stereo not shown) [Compound 2] | 0.19 |  |  |
| O=C(NC(Cc1ccc(OCc2ccc3ccc(F)cc3n2)cc1)C(=O)O)c1cc2ccccc2cn1 (stereo not shown) [Compound 22] | 0.0053 | 227 °C | affinity compared with the specific LTD4 agonist [1]: comparable; Kb ([2]; Cavia porcellus, equivalent to the calculated pA2): 0.00173 µM; ED50 of LTD4 (cumulative dose-response curve) ([2]; antagonist concentration 10 nM): 0.00803 µM; ED50 of LTD4 (cumulative dose-response curve) ([2]; antagonist concentration 30 nM): 0.01371 µM; ED50 of LTD4 (cumulative dose-response curve) [2, 6]: 0.02539 µM |
| COc1ccc(C(=O)NC(Cc2ccc(OCc3ccc4ccccc4n3)cc2)C(=O)O)cc1 (stereo not shown) [Compound 5] | 0.117 | 212 °C |  |
| O=C(NC(Cc1ccc(OCc2ccc3ccccc3n2)cc1)C(=O)O)c1ccccn1 (stereo not shown) [Compound 10] | 0.0323 | 171 °C |  |
| O=C(NC(Cc1ccc(OCc2ccc3ccccc3n2)cc1)C(=O)O)c1cnc2ccccc2n1 (stereo not shown) [Compound 27] | 0.161 | > 240 °C |  |
| O=C(NC(Cc1ccc(OCc2ccc3ccccc3n2)cc1)C(=O)O)c1c[nH]c2ccccc12 (stereo not shown) [Compound 24] | 0.0553 | 226 °C |  |
| O=C(NC(Cc1ccc(OCc2ccc3ccccc3n2)cc1)C(=O)O)c1cc2ccccc2cn1 (stereo not shown) [Compound 21] | 0.0097 | 204 °C |  |
| O=C(NC(Cc1ccc(OCc2ccc3ccccc3n2)cc1)C(=O)O)c1cccc2cccnc12 (stereo not shown) [Compound 14] | 0.064 | 141 °C (dec.) |  |

| SMILES | IC50 [1] [µM] | melting point | further results |
| --- | --- | --- | --- |
| O=C(NC(Cc1ccc(OCc2ccc3ccccc3n2)cc1)C(=O)O)c1ccnc2ccccc12 (stereo not shown) [Compound 16] | 0.2 | 224 °C |  |
| Cn1c(C(=O)NC(Cc2ccc(OCc3ccc4ccccc4n3)cc2)C(=O)O)cc2ccccc21 (stereo not shown) [Compound 25] | 0.0348 | 198 °C |  |
| O=C(NC(Cc1ccc(OCc2ccc3ccccc3n2)cc1)C(=O)O)c1ccc(Cl)cc1 (stereo not shown) [Compound 3] | 0.0981 | 197 °C |  |
| O=C(NC(Cc1ccc(OCc2ccc3ccccc3n2)cc1)C(=O)O)c1ccc2ccccc2c1 (stereo not shown) [Compound 11] | 0.039 | 196 °C |  |
| O=C(N[C@H](Cc1ccc(OCc2ccc3ccc(F)cc3n2)cc1)C(=O)O)c1ccc2ccccc2n1 [Compound 19, O-(7-fluoro-2-quinolinylmethyl)-N-quinaldoyl-D-tyrosine] | 0.0122 |  |  |
| O=C(N[C@@H](Cc1ccc(OCc2ccc3ccc(F)cc3n2)cc1)C(=O)O)c1ccc2ccccc2n1 [Compound 18, O-(7-fluoro-2-quinolinylmethyl)-N-quinaldoyl-L-tyrosine] | 0.0055 |  | affinity compared with the specific LTD4 agonist [1]: comparable |
| O=C(NC(Cc1ccc(OCc2ccc3ccccc3n2)cc1)C(=O)O)c1ccc(C(F)(F)F)cc1 (stereo not shown) [Compound 6] | 0.0427 | 211 °C |  |
| O=C(NC(Cc1ccc(OCc2ccc3ccccc3n2)cc1)C(=O)O)c1cc2ccccc2[nH]1 (stereo not shown) [Compound 23] | 0.103 | 223 °C |  |
| O=C(NC(Cc1ccc(OCc2ccc3ccccc3n2)cc1)C(=O)O)c1cnnc2ccccc12 (stereo not shown) [Compound 28] | > 0.3 | 232 °C |  |
| O=C(NC(Cc1ccc(OCc2ccc3ccccc3n2)cc1)C(=O)O)c1ccccc1-c1ccccc1 (stereo not shown) [Compound 7] | 0.181 | 155 °C |  |
| O=C(NC(Cc1ccc(OCc2ccc3ccccc3n2)cc1)C(=O)O)c1cnc2ccccc2c1 (stereo not shown) [Compound 12] | 0.076 | 230 °C |  |
| O=C(NC(Cc1ccc(OCc2ccc3ccccc3n2)cc1)C(=O)O)c1ccc(-c2ccccc2)cc1 (stereo not shown) (as salt: hydrochloride) [Compound 8] |  | 230 °C (dec.) |  |
| O=C(NC(Cc1ccc(OCc2ccc3ccccc3n2)cc1)C(=O)O)c1ccccc1 (stereo not shown) (as salt: hydrochloride) [Compound 2] |  | 140 °C |  |
| O=C(NC(Cc1ccc(OCc2ccc3ccccc3n2)cc1)C(=O)O)c1ccc2nc[nH]c2c1 (stereo not shown) [Compound 29] | 0.0903 | > 250 °C |  |
| O=C(NC(Cc1ccc(OCc2ccc3ccccc3n2)cc1)C(=O)O)c1cccc(Cl)c1 (stereo not shown) [Compound 4] | 0.11 | 187 °C |  |
| O=C(NC(Cc1ccc(OCc2ccc3ccccc3n2)cc1)C(=O)O)c1ccc(-c2ccccc2)cc1 (stereo not shown) [Compound 8] | 0.0617 |  |  |

From US6605722B2, “Tyrosine derivatives with anti-leukotrienen activity” (Rotta Research Laboratorium S.p.A., priority 2000, dated 2003)
